In patent publication US10329270B2, “Heteroaryl compounds as BTK inhibitors and uses thereof” (Merck Patent GmbH, priority 2013, dated 2019):

molecular target: T1, full-length human BTK (Homo sapiens, UniProt Q06187); assay: Assay A: BTK IC50 Enzyme Assay (microfluidic off-chip mobility shift kinase assay); format: biochemical; settings: not given
T1 construct: 2.5× stocks of full-length human BTK (08-080); purchased CarnaBio USA, Inc., Natick, Mass; 08-080
Procedure: Assay A: BTK IC50 Enzyme Assay
The following describes a microfluidic, off-chip mobility shift kinase assay used to measure inherent potency of compounds against BTK enzyme. Compounds described by embodiments of the present invention were assayed using this protocol and the data from the same is recorded in Table 2 within the column labeled: “Time Dependent BTK Enzyme Assay IC50”.
Stopped reactions were monitored at −2 PSI, −3000 V/−700 V in a LabChip 3000 plate reader from Caliper Life Sciences, a PerkinElmer Company (Hopkinton, Mass.), and the activity was measured by off-chip mobility shift assay measuring the charge/mass difference between substrate and product resulting from peptide phosphorilation. IC50 and efficacy were determined by plotting log [Inhibitor] vs. % Activity in GeneData Screener (Basel, Switzerland). […] I<1 uM and II>1 uM.

T1 sequence (Q06187 whole entry): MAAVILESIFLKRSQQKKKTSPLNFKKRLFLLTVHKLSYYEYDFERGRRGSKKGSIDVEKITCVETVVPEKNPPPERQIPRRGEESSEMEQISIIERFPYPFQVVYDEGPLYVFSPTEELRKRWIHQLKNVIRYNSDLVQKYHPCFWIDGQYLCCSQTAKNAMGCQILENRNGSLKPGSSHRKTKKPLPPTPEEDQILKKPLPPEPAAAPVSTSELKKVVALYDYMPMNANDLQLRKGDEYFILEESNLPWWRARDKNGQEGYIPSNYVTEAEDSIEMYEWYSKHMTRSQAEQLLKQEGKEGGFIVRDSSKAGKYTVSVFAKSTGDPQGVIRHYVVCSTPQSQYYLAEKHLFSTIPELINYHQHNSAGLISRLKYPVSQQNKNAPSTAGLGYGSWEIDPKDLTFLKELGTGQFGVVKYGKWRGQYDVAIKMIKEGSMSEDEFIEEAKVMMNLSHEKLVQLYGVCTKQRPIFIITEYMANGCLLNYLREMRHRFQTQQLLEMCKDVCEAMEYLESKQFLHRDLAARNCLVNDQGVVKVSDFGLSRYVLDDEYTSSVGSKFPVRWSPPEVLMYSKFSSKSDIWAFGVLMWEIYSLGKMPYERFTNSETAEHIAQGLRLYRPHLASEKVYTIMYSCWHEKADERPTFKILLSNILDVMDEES

IC50 | Compound
100 to 1000 nM | C=CC(=O)N1CCC(F)(CNc2ncc(C(N)=O)c(Oc3ccc(Oc4ccccc4)cc3)n2)CC1 [Compound 194, 2-(((1-acryloyl-4-fluoropiperidin-4-yl)methyl)amino)-4-(4-phenoxyphenoxy)pyrimidine-5-carboxamide]

same assay, conditions: full-length human BTK, kinKDR peptide substrate, incubated 90 min at 27 C; read-out: Assay A (Time Dependent BTK Enzyme Assay IC50)

Compound | IC50
C=CC(=O)N1C[C@@H]2C[C@H]1CN2c1ccc(C(N)=O)c(Nc2ccc(C)nc2)n1 [Compound 8] | < 100 nM
C=CC(=O)N1CCC(c2ncc(C(N)=O)c(Oc3ccc(Oc4ccccc4)cc3)n2)CC1 [Compound 148, 2-(1-Acryloyl-piperidin-4-yl)-4-(4-phenoxy-phenoxy)-pyrimidine-5-carboxylic acid amide] | < 100 nM
C=CC(=O)NCc1cccc(-c2ccc(C(N)=O)c(Oc3ccc(Oc4ccccc4)cc3)n2)c1 [Compound 98, 6-(3-(acrylamidomethyl)phenyl)-2-(4-phenoxyphenoxy)nicotinamide] | 1000 to 5000 nM
C=CC(=O)N1CCC(c2ccc(C(N)=O)c(Nc3cccnc3)n2)CC1 [Compound 53, 1′-Acryloyl-6-(pyridin-3-ylamino)-1′,2′,3′,4′,5′,6′-hexahydro-[2,4′]bipyridinyl-5-carboxylic acid amide] | < 100 nM
C=CC(=O)NCc1ccc(-c2ccc(C(N)=O)c(Oc3ccc(Oc4ccccc4)cc3)n2)o1 [Compound 161, 6-(5-(acrylamidomethyl)furan-2-yl)-2-(4-phenoxyphenoxy)nicotinamide] | > 5000 nM
C=CC(=O)N1CC2CN(c3cnc(Oc4ccc(Oc5cccc(F)c5)cc4)c(C(N)=O)c3)CC2C1 (centres unmarked) [Compound 238, 5-(5-Acryloyl-hexahydro-pyrrolo[3,4-c]pyrrol-2-yl)-2-[4-(3-fluoro-phenoxy)-phenoxy]-nicotinamide] | 100 to 1000 nM
N#CN1CCC(Nc2cnc(Oc3ccc(Oc4ccccc4)cc3)c(C(N)=O)c2)CC1 [Compound 246, 5-[(1-cyanopiperidin-4-yl)amino]-2-(4-phenoxyphenoxy)pyridine-3-carboxamide] | > 5000 nM
C=CC(=O)N1CCN(c2ncc(C(N)=O)c(Oc3ccc(Oc4ccccc4)cc3)n2)C(C)(C)C1 [Compound 151] | 100 to 1000 nM
N#C/C(=C\C1CC1)C(=O)N1C[C@@H]2C[C@H]1CN2c1ncc(C(N)=O)c(Oc2ccc(Oc3ccccc3)cc2)n1 [Compound 210, 2-((1S,4S)-5-((E)-2-cyano-3-cyclopropylacryloyl)-2,5-diazabicyclo[2.2.1]heptan-2-yl)-4-(4-phenoxyphenoxy)pyrimidine-5-carboxamide] | 1000 to 5000 nM
C=CC(=O)N[C@@H]1CCCN(c2ccc(C(N)=O)c(Nc3ccc(C(=O)N4CCOCC4)cc3)n2)C1 [Compound 205, (R)-3-Acryloylamino-6′-[4-(morpholine-4-carbonyl)-phenylamino]-3,4,5,6-tetrahydro-2H-[1,2′]bipyridinyl-5′-carboxylic acid amide] | < 100 nM
C=CC(=O)N1CCC=C(c2cnc(Oc3ccc(Oc4ccccc4)cc3)c(C(N)=O)c2)C1 [Compound 123, 1′-Acryloyl-6-(4-phenoxy-phenoxy)-1′,2′,5′,6′-tetrahydro-[3,3′]bipyridinyl-5-carboxylic acid amide] | < 100 nM
C=CC(=O)N1CCC(CNc2ncc(C(N)=O)c(Oc3ccc(Oc4ccccc4)cc3)n2)CC1 [Compound 209, 2-(((1-acryloylpiperidin-4-yl)methyl)amino)-4-(4-phenoxyphenoxy)pyrimidine-5-carboxamide] | 100 to 1000 nM
C=CC(=O)N1C[C@@H]2C[C@H]1CN2c1ccc(C(N)=O)c(Oc2ccc(Oc3ccc(F)cc3F)cc2)n1 [Compound 66, 6-((1S,4S)-5-Acryloyl-2,5-diaza-bicyclo[2.2.1]hept-2-yl)-2-[4-(2,4-difluoro-phenoxy)-phenoxy]-nicotinamide] | < 100 nM
C=CC(=O)N1CCC[C@@H](c2cnc(Oc3ccc(Oc4ccccc4)cc3)c(C(N)=O)c2)C1 [Compound 125, (S)-5-(1-acryloylpiperidin-3-yl)-2-(4-phenoxyphenoxy)nicotinamide] | < 100 nM
C/C=C/C(=O)N1CCCC(Nc2cnc(Oc3ccc(Oc4ccccc4)cc3)c(C(N)=O)c2)C1 (centres unmarked) [Compound 215, 5-[1-((E)-But-2-enoyl)-piperidin-3-ylamino]-2-(4-phenoxy-phenoxy)-nicotinamide] | > 5000 nM
C=CC(=O)N1CCCC(Nc2cnc(Oc3ccc(Oc4cccc(F)c4)cc3)c(C(N)=O)c2)C1 (centres unmarked) [Compound 251] | 100 to 1000 nM
C=CC(=O)N1CCC(c2ccc(C(N)=O)c(Nc3ccc(N4C[C@@H](C)O[C@@H](C)C4)nc3)n2)CC1 [Compound 32, 1′-Acryloyl-6-[6-((2R,6S)-2,6-dimethyl-morpholin-4-yl)-pyridin-3-ylamino]-1′,2′,3′,4′,5′,6′-hexahydro-[2,4′]bipyridinyl-5-carboxylic acid amide] | < 100 nM
C=CC(=O)N1CCC=C(c2ccc(C(N)=O)c(Oc3ccc(Oc4ccccc4)cc3)n2)C1 [Compound 83, 1′-Acryloyl-6-(4-phenoxy-phenoxy)-1′,2′,5′,6′-tetrahydro-[2,3′]bipyridinyl-5-carboxylic acid amide] | < 100 nM
C=CC(=O)N1CC=C(c2ccc(C(N)=O)c(Oc3ccc(Oc4ccccc4)cc3)n2)C1 [Compound 88, 6-(1-acryloyl-2,5-dihydro-1H-pyrrol-3-yl)-2-(4-phenoxyphenoxy)nicotinamide] | 100 to 1000 nM

The remaining lines, values ahead:

IC50 | Compound
100 to 1000 nM | C=CC(=O)NC1CCCN(c2cnc(Oc3ccc(Oc4ccccc4)cc3)c(C(N)=O)c2)C1 (centres unmarked) [Compound 198]
< 100 nM | C=CC(=O)N[C@H]1CCN(c2ccc(C(N)=O)c(Nc3ccc(Oc4ccccc4)cc3)n2)C1 [Compound 54, 6-((S)-3-Acryloylamino-pyrrolidin-1-yl)-2-(4-phenoxy-phenylamino)-nicotinamide]
1000 to 5000 nM | C=CC(=O)N[C@H]1CCN(c2ccc(C(N)=O)c(Oc3ccc(C(=O)Nc4ccccc4)cc3)n2)C1 [Compound 96, (S)-6-(3-acrylamidopyrrolidin-1-yl)-2-(4-(phenylcarbamoyl)phenoxy)nicotinamide]
> 5000 nM | CN(C)C/C=C/C(=O)N[C@@H]1CCN(c2ncc(C(N)=O)c(N)n2)C1 [Compound 146, 4-Amino-2-[(R)-3-((E)-4-dimethylamino-but-2-enoylamino)-pyrrolidin-1-yl]-pyrimidine-5-carboxylic acid amide]
< 100 nM | CN(C)C/C=C/C(=O)N1CCC(c2ccc(C(N)=O)c(Oc3ccc(Oc4ccccc4)cc3)n2)CC1 [Compound 76, 1′-((E)-4-Dimethylamino-but-2-enoyl)-6-(4-phenoxy-phenoxy)-1′,2′,3′,4′,5′,6′-hexahydro-[2,4′]bipyridinyl-5-carboxylic acid amid]
1000 to 5000 nM | C=CC(=O)NC1CCC(c2cnc(C(N)=O)c(NC(C)=O)c2)CC1 (centres unmarked) [Compound 133]
< 100 nM | C=CC(=O)N[C@H]1CCN(c2ccc(C(N)=O)c(Nc3ccc(N4CCC(F)(F)CC4)cc3)n2)C1 [Compound 25, 6-((S)-3-Acryloylamino-pyrrolidin-1-yl)-2-[4-(4,4-difluoro-piperidin-1-yl)-phenylamino]-nicotinamide]
< 100 nM | C=CC(=O)N[C@H]1CCN(c2ccc(C(N)=O)c(Oc3ccc(Oc4cccc(C(F)(F)F)c4)cc3)n2)C1 [Compound 82, (S)-6-(3-acrylamidopyrrolidin-1-yl)-2-(4-(3-(trifluoromethyl)phenoxy)phenoxy)nicotinamide]
100 to 1000 nM | C=CC(=O)N[C@H]1CCN(c2cc(Oc3cnn(Cc4ccccc4)c3)c(C(N)=O)cn2)C1 [Compound 115]
